# Results published in PubChem BioAssay AID2305 (GlaxoSmithKline (GSK), 2010).
# pIC50: −log10 of the molar value.
# System: P. falciparum 3D7 growth, pLDH absorbance
# Experiment: P. falciparum 3D7 growth inhibition, dose response, strain 3D7 (AID 2305)
row,Compound,pIC50
1,c1ccc(Oc2ccc(Nc3ccnc4cc(-c5csc(CNCCN6CCOCC6)n5)ccc34)cc2)cc1,6.15
2,COc1cc(CCON2C(N)=NC(N)=NC2(C)C)cc(OC)c1OC,7.30
3,O=C1OC2(CN1CC1CCN(Cc3ccc(O)cc3Cl)C1)c1ccccc1-c1ccccc12 (stereo not given),5.93
4,O=C(/C=C/c1ccc(Cl)c(Cl)c1)NCCCCCN1CCCC(CNS(=O)(=O)c2ccc(F)cc2)C1 (stereo not given),5.94
5,CCCc1cc(Cc2cnc(N)nc2N)cc(OCCCCCC(=O)O)c1OC,6.80
6,CN1CCC(COc2ccc(CN3CCC(NC(=O)c4cccc(Cl)c4)CC3)cc2)CC1,6.05
7,CN(C)C(=O)O[C@@H]1CN[C@H](C#Cc2cc3ncnc(Nc4ccc5c(cnn5Cc5cccc(F)c5)c4)c3s2)C1,6.12
8,CC(C)c1ccc(S(=O)(=O)N(c2ccc3c(c2)OCO3)C2CCN(Cc3ccccc3)C2)cc1 (stereo not given),6.46
9,Fc1cccc(C=NNc2ccnc3cc(Cl)ccc23)c1,6.28
10,CS(=O)(=O)NCCCNCc1ccc(-c2cccc(-c3nc4ccc(C(F)(F)F)cc4[nH]3)c2)cc1,6.07
11,N#CNC(=NCCCSc1csc(N=C(N)N)n1)NCCCCCCCCN=C(NC#N)NCCSCc1csc(N=C(N)N)n1,6.08
12,O=C(NC1CCC(CN2CCC(c3c[nH]c4ccccc34)CC2)CC1)c1[nH]c(=O)[nH]c(=O)c1F (stereo not given),6.10
13,O=C(Nc1ccc(N2CCNCC2)cc1)c1ccn2ncc(-c3cccc(Cl)c3)c2n1,6.04
14,N#Cc1ccc(-c2ccc(C(=O)NCCCCN3CCC(c4ccc5c(c4OCc4ccccn4)CCCC5)CC3)cc2)cc1,6.09
15,CCN(CC)c1ccccc1CNC(=O)c1cc(Cl)c(N)cc1OC,6.68
16,O=c1cc(NCCCNCc2cccc(I)c2)[nH]c2ccccc12,5.99
17,Cc1cccc(CC2CC(=O)N(c3ccc([N+](=O)[O-])cc3)C2=O)c1 (stereo not given),6.70
18,COc1cc(NC(=O)c2c(-c3c(F)cccc3Cl)noc2C)c(OC)cc1Cl,6.07
19,CN(CCN1CCC(c2c[nH]c3ccccc23)CC1)C(=O)OCCCCCNC(=O)/C=C/c1ccc(Cl)c(Cl)c1,6.17
20,Cc1cc(OCC2CCCO2)c2cc(NC(=O)C(=O)Nc3ccc4nc(C)cc(OCC5CCCO5)c4c3)ccc2n1 (stereo not given),6.10
21,CCN(CCCN1CCCCC1)c1cc(C)nc(Nc2ccc(C)c(F)c2)n1,6.57
22,COc1ccc(CCn2c(=N)c(C(=O)NCc3ccccc3)cc3c(=O)n4cccc(C)c4nc32)cc1,6.47
23,O=C(c1ccc(Cl)c(Cl)c1)N1CCc2c([nH]c3ccccc23)C1CN1CCCC1 (stereo not given),6.08
24,O=C(/C=C/C=C/c1ccccc1)NCCCCCN1CCC(c2c[nH]c3ccccc23)CC1,5.93

row,Compound,pIC50
1,COc1ccc(C(C(=O)NC2CCN(C[C@H](O)c3ccnc4ccc(OC)cc34)CC2)N2CCN(Cc3ccccc3)CC2)cc1 (stereo not given in full),6.82
2,Cc1cc(NCCCCCCN)nc(Nc2ccc(Cl)cc2)n1,6.35
3,CSc1c(CNCCCNc2cc(=O)c3ccccc3[nH]2)[nH]c2ccccc12,5.95
4,CN1CCN(CCCN(Cc2ccc(-c3ccc(CNC4CCCC4)cc3)cc2)C(=O)CCC2CCCC2)CC1,6.05
5,C#CC(C)(CO)N1CCCC1 (stereo not given),6.42
6,O=C(Nc1cc(F)cc(F)c1)NC1CCN(CCCCCNC(=O)[C@@H]2C[C@H]2c2ccc(Cl)c(Cl)c2)CC1,6.12
7,Cc1[nH]c(C)c(-c2ccc(OCc3cc(C(F)(F)F)cc(C(F)(F)F)c3)nc2)c(=O)c1Cl,6.96
8,O=C(Nc1cccc(-c2ccc(-c3nc4ccc(F)cc4[nH]3)cc2)c1)c1cccnc1,6.21
9,COc1ccc(-c2nc3c(NCc4ccccc4)nccc3[nH]2)c(OC)c1,6.11
10,Clc1ccc(-c2csc3ncnc(Cl)c23)cc1,6.34
11,CCOC(=O)c1c(C)n(-c2ccc(Cl)cc2)c2ccc(OC(=O)C=Cc3ccccc3)cc12,6.15
12,O=C(NCCCNc1ccc2ccccc2n1)c1cc2c(Cl)cc(Cl)cc2[nH]1,6.22
13,Cc1ncc(CN2CCC(C(=O)Nc3ccc(-c4nc5ccccc5o4)cc3)CC2)s1,6.41
14,CNC(=O)c1ccccc1Nc1nc(Nc2ccc(N3CCN(C)CC3)nc2)ncc1C,5.94
15,CCCCCCC(C)(C)c1cc(O)c2c3c(c(=O)oc2c1)CCN(Cc1ccccc1)C3,6.66
16,CO/C(=C\C=C\c1cc2cc(Cl)c(Cl)cc2[nH]1)C(=O)NCCCN1CCCC[C@@H]1C,6.12
17,O=C(NC1CCC(CN2CCC(c3c[nH]c4ccccc34)CC2)CC1)c1csc(-c2ccc(C(F)(F)F)cc2Cl)n1 (stereo not given),6.08
18,COc1ccc2nccc([C@@H](O)CN3CCC(NCCc4c[nH]c5ccccc45)CC3)c2c1,6.68
19,c1ccc(-c2nc3ccccc3[nH]2)c(Nc2ccnc3cc(-c4nccs4)ccc23)c1,6.13
20,O=C(Nc1ccc(Cl)cc1)c1ccc(CN2CCCN(Cc3cccc(O)c3)CC2)cc1,6.41
21,NC(N)=Nc1nc(-c2cccc(NC(=O)NCc3ccc(OC(F)(F)F)cc3)c2)cs1,6.15
22,Cn1cc(-c2ccccc2C(=O)O)c(=O)c2cc(Cl)ccc21,6.04
23,C=CCc1cc(Cc2cnc(N)nc2N)cc(CCC)c1O,6.00
24,O=C(Nc1ccc2c(c1)CCC2)N[C@H]1CCN(Cc2ccc(OCCCN3CCCCC3)cc2)C1,6.07

row,Compound,pIC50
1,CC(=O)Nc1ccc(OCCCN(Cc2ccccc2C(F)(F)F)c2ccc(C(F)(F)F)c(C#N)c2)c(Cl)c1,5.84
2,COC(=O)c1cccc(CNCc2cccc(-c3ccc(-c4nc5ccc(C(F)(F)F)cc5[nH]4)cc3)c2)c1,6.59
3,COc1cc(SC)c(Br)cc1-c1nc2ccncc2[nH]1,5.96
4,O=C(Nc1nc2cc(S(=O)(=O)NCCc3ccc(F)cc3)ccc2n1CCCn1ccnc1)c1ccc(Cl)cc1,5.95
5,O=C(NC1CCN(CCCc2ccccc2)CC1)c1ccc(-c2cccc(C(F)(F)F)c2)s1,6.05
6,COc1ccccc1CCNc1nc(C)cc(N[C@@H](Cc2ccccc2)C(=O)NCCOc2ccccc2)n1,5.92
7,CCN(CC)CCNc1ccnc2c3ccccc3n(C)c12,6.62
8,Oc1ccc2nc(Nc3ccccc3)nc(NCCc3ccccc3)c2c1,6.82
9,Cc1nc(C)c(CC(=O)Nc2ccc(-c3cccc(-c4nc5c(C)cccc5[nH]4)c3)cc2)s1,6.22
10,Cn1c(NCc2cc(F)cc3c2OCOC3)nc2cc(Nc3ccnc(Nc4cccc(CS(C)(=O)=O)c4)n3)ccc21,6.82
11,Oc1ccc(CCNc2nc(NCc3ccccc3-c3ccc(C(F)(F)F)cc3)nc(N3CCNCC3)n2)cc1,6.06
12,O=C(NC1CCN(Cc2ccccc2)CC1)c1ccc(-c2nc3cc(Cl)c(F)cc3[nH]2)s1,6.51
13,COCCNCc1ccc(-c2ccc3c(Nc4ccc(F)cc4Cl)ccnc3c2)o1,6.68
14,COc1cc2c(cc1NS(=O)(=O)c1ccc(OCc3ccc(Br)cc3)cc1)CCN(C1CCC1)CC2,6.08
15,CN1CCCN(Cc2cccc(-c3ccc(NC(=O)c4cccc(Cl)c4)cc3)c2)CC1,6.03
16,COc1cccc(CNCC(C)(C)c2nc(-c3ccc(Cl)c(O)c3)c(-c3ccncc3)[nH]2)c1,6.16
17,CS(=O)(=O)Nc1ccc2[nH]cc(C3CCN(CCCCCNC(=O)/C=C/c4ccc(Cl)c(Cl)c4)CC3)c2c1,6.13
18,Cc1ccc(CC(C)NCC(O)c2cccc(Cl)c2)cc1F (stereo not given),6.13
19,Cc1cccc2[nH]c(-c3ccc(-c4cccc(CNCCN(C)C)c4)cc3)nc12,6.17
20,CN(C)c1ccc(NC(=O)Nc2ccnc3ccc(Br)cc23)cc1,6.06
21,COc1ccc2nccc([C@@H](O)CN3CCC(NC(=O)/C=C/c4cc(F)cc(Br)c4)CC3)c2c1,6.77
22,O=C(/C=C/c1ccc(Cl)c(Cl)c1)N1CCC(CN2[C@@H]3CC[C@H]2CC(c2c[nH]c4ccccc24)C3)CC1 (stereo not given in full),6.13
23,O=c1ccc(CNc2nc(NCCc3ccccc3)nc3cc(Cl)ccc23)c[nH]1,6.52
24,COc1ccc(CNc2ccnc(-n3cnc4cc(C)c(C)cc43)n2)cc1Cl,6.57

row,Compound,pIC50
1,COc1cc(N)c(Cl)cc1C(=O)NC1CCC(NCC2CCCCC2)CC1 (stereo not given),6.37
2,CCc1cn2c3c(cc(C(=O)N[C@@H](Cc4ccccc4)[C@H](O)CNC(C)(C)c4cccc(OC)c4)cc13)N(C)S(=O)(=O)C2,7.22
3,CCCc1cc(Cc2cnc(N)nc2N)cc(CCC)c1OCCCCC(=O)OCC,7.30
4,Cc1ccc(F)c(CN2CCC(N3CC(c4ccccc4)(c4ccccc4)OC3=O)CC2)c1Cl,6.23
5,CN(C)c1nc(NN=Cc2cc(Cl)ccc2O)nc(Nc2ccc(F)cc2)n1,6.08
6,C[C@@H]1CN(c2cnn(C/C=C/c3ccc(NC(=O)c4ccc5nonc5c4)cc3)c(=O)c2Cl)C[C@H](C)N1,6.10
7,Cc1ccc(CN2CCCCC(NC(=O)c3cc4ccccc4s3)C2)cc1 (stereo not given),6.05
8,COC(=O)c1ccc(CC(C)NCC(O)c2cccc3ccccc23)cc1 (stereo not given),6.03
9,COc1cc(C=NNc2nc(Nc3ccccc3)nc(Nc3ccccc3)n2)ccc1OCc1ccccc1[N+](=O)[O-],6.09
10,Cc1cc2nc(-c3ccc(OCC(=O)NCc4cccc(C(F)(F)F)c4)cc3)[nH]c2cc1C,6.00
11,COCCCNc1sc(S(=O)(=O)c2ccccc2)nc1S(=O)(=O)c1ccc(Cl)cc1,6.06
12,Cc1c(Cl)ccc2sc(N3CCN(C(=O)c4ccc([N+](=O)[O-])o4)CC3)nc12,6.12
13,CC(CN1CCN(C)CC1)C(=O)Nc1ccc(-c2ccc(-c3nc4ccccc4[nH]3)s2)cc1 (stereo not given),6.19
14,CN(C)CCN1CCN(CCCN2c3ccccc3Sc3ccc(C(F)(F)F)cc32)CC1,6.12
15,N#Cc1ccc2c(c1)CCN(CCC1CCC(NC(=O)/C=C/c3ccc(Cl)c(Cl)c3)CC1)CC2 (stereo not given),6.38
16,COc1ccc(S(=O)(=O)N2CCC(NS(=O)(=O)c3ccc(F)cc3)CC2)cc1,5.88
17,Cc1cc(Nc2ccncc2)n2nc(C)c(-c3ccc(Cl)cc3)c2n1,6.80
18,COc1cc(Nc2nccc(N3CCC(NC(=O)C(C)c4ccc(Cl)cc4)C3)n2)cc(OC)c1OC (stereo not given),6.12
19,CCCC(N)C(=O)NC1CCN(c2c(F)c(N)c3c(=O)c(C(=O)O)cn4c3c2Oc2ccccc2-4)C1 (stereo not given),6.44
20,COC(=O)CCn1c(C2CCN(CC3CCC(NC(=O)/C=C/c4ccc(Cl)c(Cl)c4)CC3)CC2)nc2ccccc21 (stereo not given),6.02
21,CC(C)Cn1c(N)cc(=O)n(C)c1=O,6.01
22,CCOC(=O)[C@H](Cc1cccc2ccccc12)NC(=O)[C@H](CCC(=O)OC(C)(C)C)NC(=O)c1ccc(N(C)Cc2cnc3nc(N)nc(N)c3n2)cc1,6.18
23,CCc1cc(Cc2cnc(N)nc2N)cc(CC)c1OC,5.95
